The record followed here is US9926297B2, “Bicyclic AZA compounds as muscarinic M1 receptor and/or M4 receptor agonists” (Heptares Therapeutics Limited, priority 2014, dated 2018).

Some results are limits rather than exact numbers.

The target in assay [1] is T1, human muscarinic M1 receptor (Homo sapiens, UniProt P11229).
T1 sequence (P11229 1-460): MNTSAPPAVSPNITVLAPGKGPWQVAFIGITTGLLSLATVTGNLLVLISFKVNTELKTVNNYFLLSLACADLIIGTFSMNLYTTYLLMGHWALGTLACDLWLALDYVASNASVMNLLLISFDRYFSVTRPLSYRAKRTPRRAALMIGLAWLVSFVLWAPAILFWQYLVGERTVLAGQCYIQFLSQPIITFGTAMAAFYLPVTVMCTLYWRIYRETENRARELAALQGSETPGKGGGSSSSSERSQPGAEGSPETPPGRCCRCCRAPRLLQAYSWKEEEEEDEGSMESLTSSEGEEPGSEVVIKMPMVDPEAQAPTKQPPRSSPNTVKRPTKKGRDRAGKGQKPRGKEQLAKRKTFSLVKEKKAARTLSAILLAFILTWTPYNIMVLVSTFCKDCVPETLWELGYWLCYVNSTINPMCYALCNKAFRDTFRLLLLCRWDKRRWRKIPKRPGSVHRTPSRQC
Kind of assay: Alphascreen Surefire phospho-ERK1/2 functional assay, M1. Type of assay: cell-based. As to conditions: for EC50: read-out: pEC50 M1 (converted); for Emax: CHO, read-out: % Emax cf. ACh, M1, CHO cells stably expressing human M1; for Emax / % Emax cf. ACh, M1: relative to ACh.

The target of assay [2] is T2, human muscarinic M4 receptor (Homo sapiens, UniProt P08173).
T2 construct: expressed in transfected cells
T2 sequence (P08173 1-479): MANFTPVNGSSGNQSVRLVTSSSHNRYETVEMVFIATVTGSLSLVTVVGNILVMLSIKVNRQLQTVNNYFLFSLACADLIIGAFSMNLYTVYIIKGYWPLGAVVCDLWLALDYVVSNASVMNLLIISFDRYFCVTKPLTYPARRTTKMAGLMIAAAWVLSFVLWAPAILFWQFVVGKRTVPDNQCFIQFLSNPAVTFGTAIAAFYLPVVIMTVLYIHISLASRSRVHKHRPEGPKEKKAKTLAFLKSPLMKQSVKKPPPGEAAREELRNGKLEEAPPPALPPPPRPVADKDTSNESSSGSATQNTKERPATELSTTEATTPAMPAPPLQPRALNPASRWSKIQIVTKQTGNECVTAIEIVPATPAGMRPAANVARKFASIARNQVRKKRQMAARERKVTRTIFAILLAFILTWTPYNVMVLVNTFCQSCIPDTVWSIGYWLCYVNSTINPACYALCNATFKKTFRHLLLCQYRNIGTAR
Kind of assay: Alphascreen Surefire phospho-ERK1/2 functional assay, M4. As to conditions: for EC50 / % Emax cf. ACh, M4: CHO cells stably expressing human M4; for EC50: phospho-ERK1/2, * = variable results, read-out: pEC50 M4 (converted); for Emax: CHO, read-out: % Emax cf. ACh, M4, CHO cells stably expressing human M4; for Emax / % Emax cf. ACh, M4: relative to ACh. Type of assay: cell-based. A general note: In Alpha technology, singlet oxygen from a donor bead excites a nearby acceptor bead.

For assay [3], the target named is T3, human muscarinic M2 receptor (Homo sapiens, UniProt P08172).
T3 sequence (P08172 1-466): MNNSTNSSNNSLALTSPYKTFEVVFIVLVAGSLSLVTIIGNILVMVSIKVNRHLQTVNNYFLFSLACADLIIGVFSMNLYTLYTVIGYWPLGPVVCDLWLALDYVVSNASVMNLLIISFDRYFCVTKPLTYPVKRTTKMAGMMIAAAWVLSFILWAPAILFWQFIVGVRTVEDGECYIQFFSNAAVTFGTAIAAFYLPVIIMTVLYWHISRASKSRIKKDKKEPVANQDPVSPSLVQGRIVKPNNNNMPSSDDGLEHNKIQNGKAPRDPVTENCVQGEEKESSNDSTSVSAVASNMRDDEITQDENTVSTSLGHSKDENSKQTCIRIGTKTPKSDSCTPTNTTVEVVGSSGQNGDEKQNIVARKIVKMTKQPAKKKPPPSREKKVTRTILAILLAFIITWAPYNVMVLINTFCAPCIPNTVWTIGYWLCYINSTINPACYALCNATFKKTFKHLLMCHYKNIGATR
Kind of assay: Alphascreen Surefire phospho-ERK1/2 functional assay, M2. As to conditions: for Emax: CHO, read-out: % Emax cf. ACh, M2, CHO cells stably expressing human M2, relative to ACh.

Assay [4] concerns the target human muscarinic M3 receptor (Homo sapiens, UniProt P20309). Kind of assay: Alphascreen Surefire phospho-ERK1/2 functional assay, M3. As to conditions: for Emax: CHO, read-out: % Emax cf. ACh, M3, CHO cells stably expressing human M3, relative to ACh; for EC50: pEC50 M3, CHO cells stably expressing human M3, phospho-ERK1/2, * = variable results.
[5] abbreviates: CHO cells stably expressing human M1, phospho-ERK1/2, * = variable results.
Where [6] appears, read: CHO cells stably expressing human M1.

Sequence of human muscarinic M3 receptor (P20309 whole entry): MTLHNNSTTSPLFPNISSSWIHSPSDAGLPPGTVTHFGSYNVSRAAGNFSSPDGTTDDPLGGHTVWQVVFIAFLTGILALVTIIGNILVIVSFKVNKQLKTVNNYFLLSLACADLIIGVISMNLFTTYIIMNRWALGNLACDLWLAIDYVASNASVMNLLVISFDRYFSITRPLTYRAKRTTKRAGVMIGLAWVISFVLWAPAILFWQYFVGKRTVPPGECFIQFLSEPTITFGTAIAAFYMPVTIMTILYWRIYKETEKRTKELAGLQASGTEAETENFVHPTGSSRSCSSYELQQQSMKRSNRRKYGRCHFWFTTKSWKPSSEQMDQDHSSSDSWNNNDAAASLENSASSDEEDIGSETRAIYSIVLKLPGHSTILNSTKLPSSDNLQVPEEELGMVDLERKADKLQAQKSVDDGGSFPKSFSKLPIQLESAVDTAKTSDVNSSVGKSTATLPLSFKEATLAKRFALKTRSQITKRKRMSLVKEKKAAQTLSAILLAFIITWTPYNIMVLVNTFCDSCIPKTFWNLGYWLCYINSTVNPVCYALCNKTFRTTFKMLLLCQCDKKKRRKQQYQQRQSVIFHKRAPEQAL

As a reminder, the Emax is the greatest response seen or fitted, relative to the assay's reference. As to `CCOC(=O)N1CCC2(CC(N3CCC(c4ncc[nH]4)CC3)C2)C1` (single isomer, unassigned) [1-1 Isomer 2, ethyl 2-[4-(1H-imidazol-2-yl)piperidin-1-yl]-6-azaspiro[3.4]octane-6-carboxylate], the EC50 in assay [1] (setting [5]) was 63.1 nM; in assay [2] it was 7.94 nM; in assay [3], greater than 20000 nM; in assay [4], greater than 20000 nM. Further, the maximum response (Emax) in assay [1] worked out at 121%; in assay [2] it was 112%; in assay [3] it was 20%; in assay [4], 26%.

Consider `CCOC(=O)N1CCC2(CC(N3CCC(c4nc(C(F)(F)F)cn4C)CC3)C2)C1` (single isomer, unassigned) [1-15 Isomer 2, ethyl 2-{4-[1-methyl-4-(trifluoromethyl)-1H-imidazol-2-yl]piperidin-1-yl}-6-azaspiro[3.4]octane-6-carboxylate], for which the values for the EC50 in assay [1] (setting [5]), in assay [3] and in assay [4] were 100 nM, greater than 20000 nM and greater than 20000 nM, respectively. In addition, the results for the Emax in assay [1], in assay [3] and in assay [4] were 70%, 4% and 6%, respectively.

As for `CCOC(=O)N1CCC2(CC(N3CCC(c4c(C)ccnc4OC)CC3)C2)C1` (single isomer, unassigned) [3-11 Isomer 2, ethyl 2-[4-(2-methoxy-4-methylpyridin-3-yl)piperidin-1-yl]-6-azaspiro[3.4]octane-6-carboxylate], the EC50 in assay [1] (setting [5]) was 39.8 nM; in assay [2] it was 25.1 nM. For the same compound, the values for the maximum response (Emax) in assay [1] and in assay [2] were 36% and 58%, respectively.

Turning to `CCOC(=O)N1CCC2(CC(N3CCC(c4c(C)cc[nH]c4=O)CC3)C2)C1` (single isomer, unassigned) [3-14 Isomer 1, ethyl 2-[4-(4-methyl-2-oxo-1,2-dihydropyridin-3-yl)piperidin-1-yl]-6-azaspiro[3.4]octane-6-carboxylate], the EC50 in assay [1] (setting [5]) is 3160 nM. Also, the “% Emax cf. ACh, M1” value in assay [1] (setting [6]) is given as 65%. In assay [2], the EC50 was 501 nM and the Emax was determined as 65%.

For `CCOC(=O)N1CCC2(CC(N3CCC(c4c(C)cc[nH]c4=O)CC3)C2)C1` (single isomer, unassigned) [3-14 Isomer 2, ethyl 2-[4-(4-methyl-2-oxo-1,2-dihydropyridin-3-yl)piperidin-1-yl]-6-azaspiro[3.4]octane-6-carboxylate], the “pEC50 M1” value in assay [1] (setting [5]) is reported as 5.5. Moreover, in assay [1] (setting [6]), the “% Emax cf. ACh, M1” value is reported as 29%. Also, in assay [2], the EC50 is 251 nM and the “% Emax cf. ACh, M4” value is recorded as 75%.

Turning to `CCOC(=O)N1CCC2(CC(N3CCC(c4cc(C)c[nH]c4=O)CC3)C2)C1` (single isomer, unassigned) [3-15 Isomer 2, ethyl 2-[4-(5-methyl-2-oxo-1,2-dihydropyridin-3-yl)piperidin-1-yl]-6-azaspiro[3.4]octane-6-carboxylate], the EC50 in assay [1] (setting [5]) is 251 nM; in assay [2], 39.8 nM. Further, the Emax is 60% in assay [1] and 36% in assay [2].

Take `CCOC(=O)N1CCC2(CC(N3CCC(c4cc[nH]c(=O)c4)CC3)C2)C1` (single isomer, unassigned) [3-16 Isomer 2, ethyl 2-[4-(2-oxo-1,2-dihydropyridin-4-yl)piperidin-1-yl]-6-azaspiro[3.4]octane-6-carboxylate]: the EC50 in assay [1] (setting [5]) is 7940 nM; in assay [2], 2510 nM. For the same compound, the figures for the maximal response (Emax) in assay [1] and in assay [2] were 39% and 47%, respectively.

Turning to `CCOC(=O)N1CCC2(CC(N3CCC(C4CCCNC4=O)CC3)C2)C1` (single isomer, unassigned) [4-1 Isomer 2, ethyl 2-(2-oxo-3,4′-bipiperidin-1′-yl)-6-azaspiro[3.4]octane-6-carboxylate], the EC50 in assay [1] (setting [5]) is greater than 20000 nM. In addition, in assay [1] (setting [6]), the “% Emax cf. ACh, M1” value was found to be 10%. Further, in assay [2], the EC50 is 69.2 nM and the “% Emax cf. ACh, M4” value was 47%.

Take `COC(=O)N1CCC2(CC(N3CCC(C4CCCNC4=O)CC3)C2)C1` (single isomer, unassigned) [4-2 Isomer 4, methyl 2-(2-oxo-3,4′-bipiperidin-1′-yl)-6-azaspiro[3.4]octane-6-carboxylate]: the EC50 in assay [1] (setting [5]) was 794 nM; in assay [2] it was 79.4 nM. The maximal effect (Emax) in assay [1] was found to be 94%; in assay [2], 42%.

Regarding `CCOC(=O)N1CCC2(CC(N3CCC(N4CCCCC4)CC3)C2)C1` (single isomer, unassigned) [4-10 Isomer 2, ethyl 2-(1,4′-bipiperidin-1′-yl)-6-azaspiro[3.4]octane-6-carboxylate], the EC50 was greater than 20000 nM in assay [1] (setting [5]) and 251 nM in assay [2]. Further, the results for the Emax in assay [1] and in assay [2] were 7% and 31%, respectively.

For `CCOC(=O)N1CCC2(CC(N3CCC(N4CCOCC4)CC3)C2)C1` (single isomer, unassigned) [4-11 Isomer 2, ethyl 2-[4-(morpholin-4-yl)piperidin-1-yl]-6-azaspiro[3.4]octane-6-carboxylate], the EC50 is greater than 20000 nM in assay [1] (setting [5]) and 200 nM in assay [2]. Moreover, the results for the Emax in assay [1] and in assay [2] were 54% and 55%, respectively.

Take `CCOC(=O)N1CCC2(CC(N3CCC(N4CCCC[C@@H]4C(=O)NC)CC3)C2)C1` (single isomer, unassigned) [4-16 Isomer 2]: the EC50 was 1000 nM in assay [1] (setting [5]) and 158 nM in assay [2]. Also, the results for the maximal effect (Emax) in assay [1] and in assay [2] were 94% and 105%, respectively.

As to `CCOC(=O)N1CCC2(CC(N3CCC(N4CCCC[C@@H]4C(=O)N(C)C)CC3)C2)C1` (single isomer, unassigned) [4-17 Isomer 2], the EC50 in assay [1] (setting [5]) was greater than 20000 nM; in assay [2] it was 251 nM. Besides, the figures for the Emax in assay [1] and in assay [2] were 27% and 106%, respectively.

For the compound `CCOC(=O)N1CCC2(CC(N3CCC(N4CCCC[C@H]4C(=O)NC)CC3)C2)C1` (single isomer, unassigned) [4-18 Isomer 2], the EC50 in assay [1] (setting [5]) was 3160 nM; in assay [2] it was 631 nM. The figures for the Emax in assay [1] and in assay [2] were 76% and 79%, respectively.

With `CCOC(=O)N1CCC2(CC(N3CCC(C4CCCCN4C(=O)CC)CC3)C2)C1` (single isomer, unassigned) [4-19 Isomer 2, ethyl 2-(1-propanoyl-2,4′-bipiperidin-1′-yl)-6-azaspiro[3.4]octane-6-carboxylate], the EC50 in assay [1] (setting [5]) was greater than 20000 nM; in assay [2], 251 nM. Further, the Emax in assay [1] came to 7%; in assay [2], 38%.

As to `CCOC(=O)N1CCC2(CC(N3CCC(C4CCCCN4C(=O)NC)CC3)C2)C1` (single isomer, unassigned) [4-20 Isomer 2, ethyl 2-[1-(methylcarbamoyl)-2,4′-bipiperidin-1′-yl]-6-azaspiro[3.4]octane-6-carboxylate], the EC50 was greater than 20000 nM in assay [1] (setting [5]) and 158 nM in assay [2]. For the same compound, the Emax is 11% in assay [1] and 34% in assay [2].
